Results taken from article PMC9321663, “The DevTox Germ Layer Reporter Platform: An Assay Adaptation of the Human Pluripotent Stem Cell Test” (Toxics, 2022).
“Also recorded” adds a separate entry of the source. Where two headings read alike, the source gives them in different places.

Key:
[1] = tested on: BRA (mesoderm marker) in RUES2-GLR cells; test: DevTox GLR-Endo assay: increase in percent BRA-positive cells (AEID 3096, Bra_up); assay type: cell-based, human; conditions: for HIT−CALL: tcpl plot AEID3096, COFF 0.774; for MAX_MEAN: tcpl plot AEID3096, maximum mean response; for MAX_MED: tcpl plot AEID3096, maximum median response
Description: (§1) The total test chemical incubation period was 48 h.
(§2) (Supplementary Materials).

[2] = tested on: o/c ratio in H9 embryonic stem cells; conditions: Teratogen Index, o/c ratio; cited from earlier work
[3] = DevTox GLR-Endo assay: decrease in total cell count, cytotoxicity (AEID 3098, CellCount_dn); conditions: human
[4] = tested on: RUES2-GLR cells; test: as above; conditions: for Emax: Homo sapiens, read-out: Cell Count % Max Inhibition
[5] = tested on: SOX17 (endoderm marker) in RUES2-GLR cells; test: DevTox GLR-Endo assay: increase in percent SOX17-positive cells (AEID 3093, Sox17_up); assay type: cell-based, human; conditions: for Emax: Homo sapiens; for HIT−CALL: tcpl plot AEID3093, COFF 20.3
Description: as §1, §2

[6] = cited from earlier work; for Development Toxicant Classification: Table S2; for Classification: developmental toxicant classification (Teratogen / Non-Teratogen) of reference and training chemicals, ref DOI per chemical: 10.1093/toxsci/kft239, 10.1093/toxsci/kfaa014, 10.1177/026119290203000204, 10.1038/s41598-020-59542-x; for DT Class.: developmental toxicant classification
[7] = tested on: SOX17 (endoderm marker) in RUES2-GLR cells; test: DevTox GLR-Endo assay: decrease in percent SOX17-positive cells (AEID 3094, Sox17_dn); conditions: for Hit Call: Table S2, SOX17-positive cells, cutoff 3*bmad; for DevTox ACC: Table S2, percent SOX17-positive cells; for DevTox-GLR Endo ACC: activity concentration at cutoff, SOX17-positive cells; for HIT−CALL: tcpl plot AEID3094, COFF 20.3; for hit call designation (in words): DevTox GLR-Endo prediction against developmental toxicant classification
Procedure, shortened: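 RUES2-GLR cells under endoderm differentiation exposed to test chemicals for 48 h in total, with 0.2% DMSO solvent control and SB431542 (1 µM) as developmental-toxicant control. Endpoints: decrease in total cell count and in percent SOX17-positive cells; n = 4 biological replicates minimum.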

[8] = tested on: SOX17 in H9 human ESC line; conditions: SOX17 half-maximal inhibition concentration; read-out: hPST IC50; cited from earlier work
[9] = tested on: H9 ESCs; conditions: global gene expression at 6, 96 and 192 h; cited from earlier work
[10] = tested on: H9 human ESC line; conditions: cited from earlier work
[11] = tested on: SOX2 (ectoderm and pluripotency marker) in RUES2-GLR cells; test: DevTox GLR-Endo assay: increase in percent SOX2-positive cells (AEID 3095, Sox2_up); conditions: for AC50 / Emax: Homo sapiens; for AC50: read-out: ga (winning model); for Emax: read-out: tp (winning model); for MAX_MEAN: tcpl plot AEID3095, maximum mean response; for MAX_MED: tcpl plot AEID3095, maximum median response
[12] = tested on: H9 embryonic stem cells; conditions: concentration at cell viability cutoff; cited from earlier work
[13] = tested on: RUES2-GLR cells; test: DMSO tolerance test under directed endoderm differentiation (SOX17-positive cells, cell count); assay type: cell-based, human; conditions: DMSO 0.2%
Description: To identify biomarker-positive populations during directed endoderm differentiation, RUES2-GLR cells were evaluated by high-content confocal imaging. […] A qualitative loss of SOX2 expression and increased SOX17 expression were evident, indicating loss in pluripotency and commitment to definitive endoderm, respectively (Figure 2A).

[14] = tcpl plot AEID3093, maximum mean response, read-out: MAX_MEAN
[15] = tcpl plot AEID3093, maximum median response, read-out: MAX_MED
[16] = chemicals common with quickPredict
[17] = Homo sapiens, 48 h, read-out: DevTox-GLR Endo AC50 (µM), SOX17 half-maximal activity concentration, 48 h exposure
[18] = Homo sapiens, read-out: DevTox % Max Inhibition
[19] = Homo sapiens, read-out: MAX_MEAN
[20] = Homo sapiens, read-out: MAX_MED
[21] = Homo sapiens, read-out: ga (winning model), tcpl plot AEID3094, gain parameter of winning curve fit (log concentration, µM axis), hit calls only (converted)
[22] = Homo sapiens, read-out: tp (winning model)
[23] = cytotoxicity half-maximal concentration

| Structure (SMILES) | Cell Count ACC ([4]; human, 48 h) | quickPredict TI [2] | Emax [4] | Emax [5, 14] | Emax [5, 15] | HIT−CALL [5] | Development Toxicant Classification [6] | Classification [6] | DT Class. [6, 16] | Emax [7, 18] | Emax [7, 19] | Emax [7, 20] | Hit Call [7] | DevTox ACC ([7]; 48 h exposure) | HIT−CALL [7] | MAX_MEAN [11] | MAX_MED [11] | quickPredict CV [12] | HIT−CALL [1] | MAX_MEAN [1] | other results |
| --- | --- | --- | --- | --- | --- | --- | --- | --- | --- | --- | --- | --- | --- | --- | --- | --- | --- | --- | --- | --- | --- |
| C[S+](C)[O-] [DMSO, dimethyl sulfoxide] |  |  |  |  |  |  |  |  |  |  |  |  |  |  |  |  |  |  |  |  | effect on cell counts (in words) [13]: without affecting cell counts; reduction of the SOX17 population [13]: 19.5% |
| NC(=O)NO [Hydroxyurea] |  | 74.9 µM |  |  |  | 0 | Positive | Teratogen | Pos |  |  |  | Negative | >200 µM | 0 | 1.5 Percent Activity | 0.557 Percent Activity | 237 µM | 0 | 0.733 Percent Activity | MAX_MED [1]: 0.69 Percent Activity; Cell Count ACC ([4]; Table S2, 48 h exposure): 64.5432 µM; Cell Count % Max Inhibition ([4]; Table S2, cell count relative to DMSO): 34.555%; DevTox-GLR Endo CC ([4]; concentration at cell count cutoff, 48 h exposure): 64.54 µM; effect on cell count (in words) ([4]; training set, 48 h exposure): significant cell loss that did not impact SOX17-positive populations; also recorded: significant decreases in cell count; MAX_MEAN ([5]; tcpl plot AEID3093, maximum mean response): 13.7 Percent Activity; MAX_MED ([5]; tcpl plot AEID3093, maximum median response): 16 Percent Activity; hit call designation (in words) [7]: false negative; DevTox % Max Inhibition ([7]; Table S2, percent SOX17-positive cells relative to DMSO): 15.8672%; maximum observed effect level class (% max inhibition) ([7]; stratification of training set chemicals): weak (weak (0–20% max inhibition)); MAX_MEAN ([7]; tcpl plot AEID3094, maximum mean response): 17.2 Percent Activity; MAX_MED ([7]; tcpl plot AEID3094, maximum median response): 15.9 Percent Activity |
| CCCC(CCC)C(=O)O [Valproic Acid] | >200 µM | 155 µM | 18.1% | 7.73% | 5.59% | 0 | Positive | Teratogen | Pos | 22.3% | 22% | 22.3% | Positive | 177.332 µM | 1 | 1.25 Percent Activity | 0.475 Percent Activity | 271 µM | 0 | 0.771 Percent Activity | MAX_MED [1]: 0.815 Percent Activity; CC50 at 48 h [3]: > 200 µM; DT Class. ([6]; chemicals common with hPST): Pos; SOX17 ACC relative to cytotoxic concentration (in words) [7]: below cytotoxic concentrations; AC50 [7, 17]: 124 µM; AC50 [7, 21]: 123 µM; Emax [7, 22]: 29.3%; DevTox-GLR Endo ACC ([7]; 48 h exposure): 177.33 µM; IC50 [8]: 2.6 µM; hPST TC50 [10, 23]: 3.3 µM; hPST TC50 ([10]; hPST cytotoxicity): 3.3 µM |

Continued, in another order:

| Cell Count ACC ([4]; human, 48 h) | Structure (SMILES) | quickPredict TI [2] | Emax [4] | Emax [5, 14] | Emax [5, 15] | HIT−CALL [5] | Development Toxicant Classification [6] | Classification [6] | DT Class. [6, 16] | Emax [7, 18] | Emax [7, 19] | Emax [7, 20] | Hit Call [7] | DevTox ACC ([7]; 48 h exposure) | HIT−CALL [7] | MAX_MEAN [11] | MAX_MED [11] | quickPredict CV [12] | HIT−CALL [1] | MAX_MEAN [1] | other results |
| --- | --- | --- | --- | --- | --- | --- | --- | --- | --- | --- | --- | --- | --- | --- | --- | --- | --- | --- | --- | --- | --- |
| 3.839 µM | CC1=C(/C=C/C(C)=C/C=C/C(C)=C/C(=O)O)C(C)(C)CCC1 | 0.003 µM | 97.6% | 4.3% | 3.82% | 0 | Positive | Teratogen | Pos | 101% | 101% | 101% | Positive | 0.04166 µM | 1 | 50.7 Percent Activity | 53.1 Percent Activity |  |  |  | increase of BRA protein expression (in words) ([1]; AEID 3096, 48 h exposure): lack of significant BRA perturbation; CC50 at 48 h ([3]; RUES2-GLR cells under directed endoderm differentiation): 5.53 µM; DevTox-GLR Endo CC ([4]; human, 48 h): 3.84 µM; DT Class. ([6]; chemicals common with hPST): Pos; Developmental Toxicant Classification ([6]; reference chemicals): Positive; IC50 ([7]; Homo sapiens, 48 h): 0.16 µM; AC50 [7, 17]: 0.1 µM; AC50 [7, 21]: 0.101 µM; Emax [7, 22]: 99.2%; DevTox-GLR Endo ACC ([7]; 48 h exposure): 0.04 µM; % Max Inhibition ([7]; maximum inhibition of SOX17-positive cells, reference chemical testing, 48 h exposure): 93%; IC50 [8]: 0.07 µM; toxicological tipping point concentration [9]: 17 ± 11 nM; hPST TC50 [10, 23]: 33 µM; hPST TC50 ([10]; hPST cytotoxicity): 33 µM; AC50 [11]: 87.1 µM; Emax [11]: 71.4% |
| 4.179 µM | O=c1[nH]cc(F)c(=O)[nH]1 [5-Fluorouracil] | 2.02 µM | 91% | 3.38% | 4.48% | 0 | Positive | Teratogen | Pos | 102% | 102% | 102% | Positive | 7.071 µM | 1 | 6.64 Percent Activity | 5.57 Percent Activity | 1.45 µM |  |  | CC50 at 48 h [3]: 5.72 µM; effect on cell count (in words) [4]: significant decreases in cell count; DevTox-GLR Endo CC ([4]; human, 48 h): 20.34 µM; DT Class. ([6]; chemicals common with hPST): Pos; AC50 [7, 17]: 8.48 µM; AC50 [7, 21]: 8.49 µM; Emax [7, 22]: 102%; DevTox-GLR Endo ACC ([7]; 48 h exposure): 7.07 µM; IC50 [8]: 0.6 µM; hPST TC50 [10, 23]: 0.7 µM; hPST TC50 ([10]; hPST cytotoxicity): 0.7 µM; AC50 [11]: 18.6 µM; Emax [11]: 5.33% |
| 0.3474 µM | CN(Cc1cnc2nc(N)nc(N)c2n1)c1ccc(C(=O)N[C@@H](CCC(=O)O)C(=O)O)cc1 [Methotrexate] | 0.059 µM | 44.6% | 2.23% | 2.87% | 0 | Positive | Teratogen | Pos | 24.6% | 22.4% | 24.6% | Negative | >200 µM | 0 | 0.917 Percent Activity | 0.899 Percent Activity | 0.062 µM | 1 | 1.26 Percent Activity | MAX_MED [1]: 1.19 Percent Activity; effect on cell count (in words) [4]: significant decreases in cell count; DevTox-GLR Endo CC ([4]; human, 48 h): 0.35 µM; effect on cell count (in words) ([4]; human, 48 h): significant cell loss that did not impact SOX17-positive populations; hit call designation (in words) [7]: borderline calls; Emax ([7]; Homo sapiens, read-out: maximum observed effect level class (% max inhibition)): 20 to 80%; AC50 [11]: 0.0525 µM; Emax [11]: 0.771% |
| >200 µM | O=C(O)c1ccccc1O [Salicylic Acid] | 513 µM | 11.5% | 8.74% | 9.69% | 0 |  | Non-Teratogen | Neg | 6.91% | 7.1% | 6.91% | Negative | >200 µM | 0 | 0.533 Percent Activity | 0.494 Percent Activity | 1795 µM | 0 | 0.835 Percent Activity | MAX_MED [1]: 0.894 Percent Activity |
